Assay results published in patent US20150112057A1, “NOVEL CRYSTALLINE CEFOPERAZONE INTERMEDIATE” (DSM Sinochem Pharmaceuticals Netherlands B.V., priority 2011, published 2015).

Key:
[1] = Chemical degradation of 7-TMCA to 5-mercapto-1-methyltetrazole during dissolution and enzymatic condensation; type: physicochemical; details: during the dissolution step, titration with aqueous NaOH 5M
Protocol: (§1) The reactions were followed by quantitative HPLC analysis. The retention factors of 7-TMCA, HPGM, HPG and 5-mercapto-1-methyltetrazole were calculated using standards; the retention factor of D-7-(4-hydroxyphenylacetamido)-3-(1-methyl-1H-tetrazol-5-yl)thiomethylcephem-4-carboxylic acid was deducted based on mass balance in the first experiments and subsequently calculated using standard; the retention factor of cefatrizine was deducted on mass balance.
7-Amino-3-(1-methyl-1H-tetrazol-5-ylthiomethyl)-3-cephem-4-carboxylic acid (7-TMCA; 5 g) was added to distilled water (38 g) and cooled to 3° C. The mixture was stirred at 400 rpm and the pH was brought to 9.0 with aqueous NaOH (5M) whereafter the remainder of the reaction was carried out at pH 8.8. After 60-80 min, the suspension was filtered. The filtrate, containing 4.1 g of 7-TMCA, was place back in the reactor and immobilized penicillin G acylase mutant 1 (3.5 g, see Materials and Methods) was added and to the resulting mixture a solution of D-4-hydroxyphenylglycine methylester (HPGM) was dropped at speed of 7 mL/h by a syringe pump (dosing time 2 h). This solution was prepared by dissolving HPGM (4.0 g, 1.7 equiv.) in water (6.4 g) and H2SO4 25% (4.25 g in water). The enzymatic reaction was followed by analytical HPLC (see Materials and Methods) and stopped at the end of HPGM addition, by enzyme filtration. […]

[2] = biological target: T1, immobilized penicillin G acylase mutant 1 (Escherichia coli, UniProt P06875, F313A/F749L/S29L/V218E/V437L); assay: Enzymatic hydrolysis of HPGM to HPG; type: biochemical; details: water pH 8.7, 2° C., immobilized penicillin G acylase mutant 1 (5 g)
T1 construct: mutations V11A, A:S3L, A:V192E, B:F24A, B:V148L and B:F460L; made in house
Description: The production, isolation and purification of wild type and mutant penicillin G acylases may be carried out as described in WO 1996/005318 and WO 2003/055998. Alternatively, genes encoding mutant penicillin G acylases may be obtained by gene synthesis. Production of the mutant penicillin G acylase was achieved by cloning the genes encoding mutant penicillin G acylases into an appropriate expression vector, transforming a suitable host such as Escherichia coli with said vector and culturing the transformed host under conditions suitable for the production of the mutant penicillin G acylases and recovery and purification of the mutants was carried out as described in WO 2010/072765. […]
as §1
During the enzymatic condensation of 7-TMCA and HPGM the latter compound was hydrolyzed to HPG. […] In one of the reactors immobilized penicillin G acylase mutant 1 (5 g) was added and the two reactions were monitored by analytical HPLC.

[3] = Chemical hydrolysis of HPGM to HPG (chemical blank, no enzyme); type: physicochemical; details: water pH 8.7, 2° C.
Protocol: as §1
During the enzymatic condensation of 7-TMCA and HPGM the latter compound was hydrolyzed to HPG. […] Two reactions were started in parallel at 2° C. […] In one of the reactors immobilized penicillin G acylase mutant 1 (5 g) was added and the two reactions were monitored by analytical HPLC.

amount of 5-mercapto-1-methyltetrazole (degradation product of 7-TMCA) [1] | SMILES | time to complete conversion of HPGM to HPG by the enzyme [2] | HPGM hydrolyzed in the chemical blank ([3]; 20 h) | formation of HPG from HPGM in the chemical blank ([3]; within 2 h)
not detectable | Cn1nnnc1SCC1=C(C(=O)O)N2C(=O)[C@@H](N)[C@H]2SC1 [Example 7-TMCA, 7-amino-3-(1-methyl-1H-tetrazol-5-ylthiomethyl)-3-cephem-4-carboxylic acid] |  |  | 
 | COC(=O)[C@H](N)c1ccc(O)cc1 [HPGM, D-4-hydroxyphenylglycine methylester] | ≤ 5 min | 9% | no HPG was recorded
